# Laboratory results reported in US7201928B1, “Extracts of orange peel for prevention and treatment of cancer” (Rutgers, The State University of New Jersey, priority 1999, dated 2007).
# Read-outs that look alike come from different tables or passages of the source.
# Assays:
# W138 (normal) cells = test: cell proliferation assay and morphology, normal cells; assay type: cell-based, human; conditions: for neutral β-galactosidase activity (staining), senescence marker: W138 cells; for effect on normal cell growth: crystal violet, 0, 1, 5, 10, 20 or 50 μg/ml
# Experimental: (§1) In addition to testing for the activity of the complete orange peel extract, two of the identified extract components, tangeretin and nobeletin, were tested for their combined activity in a cell proliferation assay. The growth of W138 (normal) and W138VA (transformed) cells was tested in the presence of a mixture of tangeretin and nobeletin. The dye crystal violet was used for measuring growth of the cells. Cells were treated with either tangeretin alone (0, 1, 5, 10, 20 or 50 μg/ml), nobeletin alone (0, 1, 5, 10, 20 or 50 μg/ml) or a mixture of the two compounds at a total concentration of the two flavenoids of 0, 1, 5, 10, 20 or 50 μg/ml. […] The range of doses of the extract tested was 0, 1, 5, 10, 20 and 50 μg/ml.
# (§2) W138 human diploid fibroblasts and cancerous SV40-transformed W138 cells (W138VA) were used in a cell proliferation assay. Growth rate and viability of these cells was determined following addition of resveratrol or one of its analogs. Doses tested ranged from 50 ng to 300 μg per ml or 1 μM to 100 μM concentrations in culture media. […] MR-1 was not active as an inhibitor of cell growth even at doses as high as 100 μM.
# Treatment of W138 and W138VA cells with resveratrol and its analogs also led to morphological changes in the cells. Treatment of W138 cells with resveratrol and its analogs R-1 and R-3 led to elongation of normal W138 cells. Methoxy analogs such as MR-0 and MR-3 caused the flattening of W138 cells. This flattening was accompanied by an increase in neutral β-galactosidase activity as indicated by an increase in staining.
# 184-B5/HER cells = test: preclinical cell culture model for human ductal breast carcinoma in situ; assay type: cell-based; conditions: for cell cycle analysis: relative to solvent-treated control cultures
# Experimental: Experiments were also performed in a preclinical cell culture model for human ductal breast carcinoma in situ (DCIS). The human breast-derived preneoplastic cell line 184-B5/HER expressed HER-2/neu, p53 and EGFR but not ER, therefore resembling the clinical DCIS. Initial dose-response experiments compared the growth inhibitory effect of orange peel extract on the parental 184-B5 cells and the HER-2/neu oncogene-expressing 184-B5/HER cells. […] Orange peel extract at the maximum cytostatic dose of 100 ppm accumulated the cells in the G0/G1 phase and inhibited the S+G2/M phase of the cell cycle, leading to down-regulation of cell cycle progression. […] Treatment of 184-B5/HER cells with 100 ppm orange peel extract induced a 7.6-fold increase in sub G0/G1 (apoptotic) population. Consistent with the induction of apoptosis, immunoreactivity to anti-apoptotic Bcl-2 was decreased by 33%.
# Resveratrol and its analogs were also tested in preneoplastic 184-B5/HER human mammary epithelial cells.
# W138 and W138VA cells = test: cell proliferation assay, cell line not specified for the result; assay type: cell-based, human
# Experimental: as §1, §2
# [1] = system: oncogene-expressing, preneoplastic breast epithelial cells; test: orthotransplant model, palpable tumor formation at transplant sites; conditions: AIN-76A diet supplemented with 400 ppm
# Text: Mice were transplanted with oncogene-expressing, preneoplastic breast epithelial cells. Mice were then divided into groups with the control group fed AIN-76A diet alone. Another group of mice was fed AIN-76A diet supplemented with MR-3 (400 ppm).
# [2] = system: W138VA (transformed) cells; test: cell proliferation assay, transformed cells; assay type: cell-based, human; conditions: for inhibition of cell growth in transformed cells: crystal violet, 0, 1, 5, 10, 20 or 50 μg/ml
# Experimental: as §1, §2
# [3] = system: AOM-induced aberrant crypt foci (ACF); test: AOM-induced formation of aberrant crypt foci (colon cancer model); assay type: in vivo, Female CF-1 mice; conditions: 0.2% in diet
# Experimental: The orange peel extract was then tested in an in vivo model for colon cancer. Female CF-1 mice were injected with azoxymethane (AOM) once a week for four weeks at increasing doses (5, 10, 10 and 10 mg/kg). Orange peel extract was administered in the diet (0.2%) starting two weeks before the first AOM injection, during and continuing until the end of the experiment at 24 weeks. At week 24, the mice were given one last dose of AOM (10 mg/kg). The mice were then sacrificed and their colons removed (from anus to caecum). The colons were opened longitudinally, rinsed with normal saline, and stapled to a plastic sheet. The colon samples were placed in a 10% neutral buffered formalin solution for 24 hours. The entire colon was stained with 0.2% methylene blue dissolved in phosphate buffered saline for 20 minutes. The whole mount of colon samples were then examined using light microscopy for the presence of aberrant crypt (AC) or aberrant crypt foci (ACF). Both ACF and AC are biomarkers for colon cancer. […] Mice fed nordihydroxyguaiaretic acid (NDGA) in the diet (0.2%) were used as controls.
# AOM-induced colon tumors = test: AOM-induced colon tumorigenesis; conditions: 0.2% in AIN 76A diet + AOM
# Experimental: In a similar experiment in the mouse colon cancer model, CF-1 mice were injected with AOM (5, 10, 10 and 10 mg/kg) starting at 6 weeks of age, once each week and then once at 37 weeks after the first dose of AOM. Throughout the treatment period, mice received either an AIN 76A diet or test compound in AIN 76A diet at 2 weeks before the first dose of AOM and continuing until the end of the experiment. The test compounds were NDGA (0.2%) and orange peel extract (0.2%). Colon samples were again obtained at sacrifice, stored in 10% formalin phosphate buffer, and then colon tumor number was determined.
# [4] = read-out: concentration that inhibited growth by 50% (IC50), 184-B5/HER human mammary epithelial cells
structure (smiles),measurement,setting,value
"COc1ccc(C=Cc2cc(OC)cc(OC)c2)cc1 [MR-0, 3, 4′,5-trimethoxystilbene]",morphological changes of W138 cells,W138 (normal) cells,flattening
same,"neutral β-galactosidase activity (staining), senescence marker",W138 (normal) cells,increase
same,IC50,184-B5/HER cells; [4],10.5 µM
same,cell cycle analysis,184-B5/HER cells,progressive arrest of cells in the G2/M phase
same,inhibition of cell growth,W138 and W138VA cells; tested 1 μM to 100 μM,inhibited cell growth
"COc1cc(C=Cc2ccccc2)cc(OC)c1 [MR-1, 3,5-dimethoxystilbene]",activity as inhibitor of cell growth,W138 and W138VA cells; doses as high as 100 μM,not active
"COc1cc(C=Cc2ccc(OC)c(OC)c2)cc(OC)c1 [MR-2, 3,3′,4,5′-tetramethoxystilbene]",IC50,184-B5/HER cells; [4],120 µM
same,cell cycle analysis,184-B5/HER cells,progressive arrest of cells in the G2/M phase
"COc1ccc(C=Cc2cc(OC)c(OC)c(OC)c2)cc1 [MR-3, 3,4,4′,5-tetramethoxystilbene]",morphological changes of W138 cells,W138 (normal) cells,flattening
same,growth of W138 cells,W138 (normal) cells; 1 μM,no effect
same,"neutral β-galactosidase activity (staining), senescence marker",W138 (normal) cells,increase
same,toxicity (weight gains comparable),[1]; 12 weeks,little toxicity
same,tumor incidence,[1]; 12 weeks of continuous feeding,20%
same,IC50,"184-B5/HER cells; Homo sapiens, 184B5, read-out: concentration that inhibited growth by 50% (IC50)",1 µM
same,cell cycle analysis,184-B5/HER cells,progressive arrest of cells in the G2/M phase
same,proliferation of W138VA cells,[2]; 1 μM,completely blocked proliferation
"COc1cc(C=Cc2cc(OC)cc(OC)c2)cc(OC)c1 [MR-4, 3,3′,5′5′-tetramethoxystilbene]",growth of W138 cells,W138 (normal) cells; 100 μM,inhibited growth
"CC(Cc1ccc(O)c(O)c1)C(C)Cc1ccc(O)c(O)c1 (stereo not shown) [NDGA, nordihydroxyguaiaretic acid]",AC/ACF,[3]; 24 weeks,3.5
same,AC/colon,[3]; 24 weeks,9.4 ± 2.2
same,ACF/colon,[3]; 24 weeks,2.7 ± 0.9
same,ACF: 1 AC/colon,[3]; 24 weeks,6.8 ± 1.5
same,ACF: 2 AC/colon,[3]; 24 weeks,1.0 ± 0.3
same,ACF: 3 AC/colon,[3]; 24 weeks,0.2 ± 0.2
same,ACF: 4 AC/colon,[3]; 24 weeks,0
same,ACF: 5 AC/colon,[3]; 24 weeks,0
same,ACF: 6 AC/colon,[3]; 24 weeks,0
same,ACF: 7 AC/colon,[3]; 24 weeks,0
same,inhibition of the number of ACF per colon,[3]; vs positive control,48%
same,inhibition of the ratio of AC/ACF,[3]; vs positive control,51%
same,Colon Tumors Per Mouse,AOM-induced colon tumors,0.27 ± 0.14
same,Percent Incidence,AOM-induced colon tumors,27%
"Oc1cc(O)cc(C=Cc2ccccc2)c1 [R-1, 3,5-dihydroxystilbene]",morphological changes of W138 cells,W138 (normal) cells,elongation
"Oc1ccc(C=Cc2cc(O)c(O)c(O)c2)cc1 [R-3, 3,4,4′,5-tetrahydroxystilbene]",morphological changes of W138 cells,W138 (normal) cells,elongation
same,inhibition of cell growth,W138 and W138VA cells; tested 1 μM to 100 μM,inhibited cell growth
"COc1ccc(-c2cc(=O)c3c(OC)c(OC)c(OC)c(OC)c3o2)cc1OC [nobeletin, 5,6,7,8,3′,4′-hexamethoxyflavone]",effect on normal cell growth,W138 (normal) cells,no effect
same,inhibition of cell growth in transformed cells,[2],only marginal effects
"Oc1ccc(C=Cc2cc(O)cc(O)c2)cc1 [resveratrol, reference compound]",morphological changes of W138 cells,W138 (normal) cells,elongation
same,concentration inhibiting cell growth,W138 and W138VA cells; tested 1 μM to 100 μM,less than 10 μM
"COc1ccc(-c2cc(=O)c3c(OC)c(OC)c(OC)c(OC)c3o2)cc1 [tangeretin, 5,6,7,8,4′-pentamethoxyflavone]",effect on normal cell growth,W138 (normal) cells,no effect
same,inhibition of cell growth in transformed cells,[2],only marginal effects
